# Experimental data as given in patent US7291451B2, “Modulation of pericyte proliferation” (XOMA Technology Ltd., priority 2000, dated 2007).
# Several values for one entry are separate records, joined by “and”; a condition that tells them apart may be missing. Identical values can stand only once. Entries after “also recorded” stand apart in the source; their conditions may differ.
# How the values were obtained:
# [1] = test system: human retinal pericytes (HRPC); experiment: Human retinal pericyte proliferation assay (Methylene blue, OD650); type: cell-based; conditions: for HRPC proliferation: initial experiment, treated once, medium not changed; for toxicity on HRPC: initial assay
# Protocol: In addition to studies with primary cell cultures of bovine retinal pericytes described above, experiments were performed with a human cell line obtained from Clonetics (San Diego, Calif.) of retinal pericytes (catalog no. CC-2542 PyCRt). These human retinal pericytes (HRPC) were cultured in Dulbecco's modified Eagle's medium (DMEM, Gibco BRL, Grand Island, N.Y.) with 5.6 mM glucose and 20% fetal bovine serum (FBS, Gibco BRL, Grand Island, N.Y.).
# Proliferation assays were performed as follows: HRPC were plated onto 24-well culture plates (3000 cells/well) in 5 or 10% FBS-DMEM with 5.6 mM glucose and incubated overnight. The cells were treated once with vehicle alone or with vehicle and several concentrations of XMP.627 ([SEQ ID NO: 4]), XMP.664 ([SEQ ID NO: 5]), XMP.679 ([SEQ ID NO: 3]), or XMP.728 ([SEQ ID NO: 6]) for 5 or 6 days. The medium was not changed, nor were additional amounts of test compounds added as described in the experiments of part A above. The cells were fixed and stained with Methylene blue and proliferation assayed by observation at OD650.
# [2] = test system: bovine retinal endothelial cells (BREC); experiment: Cell growth assay (DNA content) in bovine retinal endothelial cells; type: cell-based
# Protocol: Primary cultures of bovine retinal endothelial cells (BREC) were isolated by homogenization and a series of filtration steps as described in King et al., J. Clin. Invest., 1985, 75:1028-36. BREC were subsequently cultured with endothelial cell basal medium (EBM; Clonetics, San Diego, Calif.). supplemented with 10% plasma-derived horse serum (PDHS), 50 mg/l heparin, and 50 μg/ml endothelial cell growth factor (ECGF, Roche, Indianapolis, Ind.). Cells were characterized for homogeneity by their immunoreactivity with anti-factor VIII antibody. Cells remained morphologically unchanged under these conditions, as confirmed by light microscopy. Only cells from passages 2 through 7 were used for the experiments.
# (§1) A cell growth assay was performed as follows: Cells were plated onto 12-well culture plates and incubated overnight. The cells were treated with vehicle, vascular endothelial growth factor (VEGF, R & D Systems, Minneapolis, Minn.) at 25 ng/ml, serum, compounds, or combinations thereof. The medium is changed during the incubation period, with fresh medium and fresh test compound added every 2 days. After incubation for indicated time period at 37° C., the cells were lysed in 0.1% SDS and DNA content was measured by means of Hoechst-33258 dye and a fluorometer (model TKO-100, Hoefer Scientific Instruments, San Francisco, Calif.). It has been shown that total cellular DNA content measured in this manner correlates closely with actual cell number as determined by hemocytometer counting of trypsinized cells.
# (§2) Determinations were performed in triplicate and all experiments were repeated at least three times. Results are expressed as the mean ±standard deviation, unless otherwise indicated. Statistical analysis employed Student's t-test or analysis of variance to compare quantitative data populations with normal distributions and equal variance. Data were analyzed using the Mann-Whitney rank sum test or the Kruskal-Wallis test for populations with non-normal distributions or unequal variance. A P-value of <0.05 was considered statistically significant.
# [3] = test system: bovine retinal pericytes (BRPC); experiment: Cell growth assay (DNA content, cell number) in bovine retinal pericytes; type: cell-based
# Protocol: as §1, §2
# Primary cultures of bovine retinal pericytes (BRPC) were isolated by homogenization and a series of filtration steps as described in King et al., J. Clin. Invest., 1985, 75:1028-36. BRPC were cultured in Dulbecco's modified Eagle's medium (DMEM, Gibco BRL, Grand Island, N.Y.) with 5.5 mM glucose and 20% fetal bovine serum (FBS, Gibco BRL, Grand Island, N.Y.). Cells were characterized for homogeneity by their immunoreactivity with monoclonal antibody 3G5 [Nayak et al., J. Exp. Med. 1988, 167:1003-15]. Cells remained morphologically unchanged under these conditions, as confirmed by light microscopy. Only cells from passages 2 through 7 were used for the experiments.
# A cell growth assay was performed as described above in Example 1 and the medium was changed, with fresh medium and fresh test compound added every 2 or 3 days, preferably every 2 days. […] At 20% FBS a six to seven fold increase of total DNA was detected.
# [4] = test system: MAP kinase phosphorylation; experiment: MAP kinase phosphorylation in BRPC; type: cell-based, bovine; conditions: 75 μg/ml
# Protocol: Experiments were also performed in which the level of MAP kinase phosphorylation was determined in BRPC treated with 75 μg/ml rBPI21 or 5 μg/ml XMP.679. […] These observations indicate that exemplary BPI protein products rBPI21 and, to a lesser extent, XMP.679, enhance MAP kinase phosphorylation in BRPC.
# [5] = test system: Bovine retinal pigment epithelial cells (RPEC); experiment: Cell growth assay in bovine retinal pigment epithelial cells; type: cell-based; conditions: 75 μg/ml
# Protocol: as §1
# Bovine retinal pigment epithelial cells (RPEC) were isolated by gentle scraping after removal of the neural retina and incubation with 0.2% collagenase as described in King et al., Diabetes, 1987, 36:1460-7. RPEC were cultured in DMEM with 5.5 mM glucose and 10% calf serum (CS, Gibco BRL, Grand Island, N.Y.). Cells were cultured in 5% CO2 at 37° C., and media were changed every other days. Cells were characterized for their homogeneity by immunoreactivity with anti-cytokeratin antibody for RPEC. […]
molecule,measurement,setting,value
"XMP.728: BPI-derived peptide, SEQ ID NO: 6 (KLFKAQAKAKG; XMP.728; listed as Homo sapiens)",effect on HRPC proliferation,[1]; 10% FBS,to lesser extent
same,effect on HRPC proliferation,"[1]; only at approximately 5 μg/ml, 5% FBS",increased HRPC proliferation
VEGF [reference compound],increase of DNA content,[2]; VEGF alone at 25 ng/ml,3 to 5 fold and 3 to 4 fold
"XMP.861: BPI protein product, SEQ ID NO: 9 (KLFRA; XMP.861; listed as Homo sapiens)",HRPC proliferation,[1],little or no proliferation
"XMP.365: BPI protein product, SEQ ID NO: 11 (KWLIQLFHKK; XMP.365; listed as Homo sapiens)",toxicity on HRPC,[1],some toxicities
"XMP.627: BPI-derived peptide, SEQ ID NO: 4 (KLFRAQAKAKG; XMP.627; listed as Homo sapiens)",concentration of maximum HRPC proliferation,[1]; 5% FBS,approximately 5 μg/ml
same,effect on HRPC proliferation,[1]; 10% FBS,did increase HRPC proliferation
same,effect on HRPC growth,"[1]; above 10 μg/ml, 5% FBS",slight growth inhibitory effect
same,effect on HRPC proliferation,"[1]; approximately 0.5, 1, 5, 8 μg/ml, 5% FBS",increased HRPC proliferation in a dose responsive manner
"XMP.676: BPI protein product, SEQ ID NO: 13 (KAVIQVVAKK; XMP.676; listed as Homo sapiens)",HRPC proliferation,[1],enhanced the proliferation of HRPC
"XMP.851: BPI protein product, SEQ ID NO: 15 (KLFRAQA; XMP.851; listed as Homo sapiens)",HRPC proliferation,[1],enhanced the proliferation of HRPC
"XMP.664: BPI-derived peptide, SEQ ID NO: 5 (KLFRAQAK; XMP.664; listed as Homo sapiens)",effect on HRPC growth,"[1]; 10 μg/ml and higher, 5% FBS",slight growth inhibitory effect
same,effect on HRPC proliferation,"[1]; 10 μg/ml, 10% FBS",increased HRPC proliferation
same,concentration of maximum HRPC proliferation,[1]; 5% FBS,approximately 5 μg/ml
same,effect on HRPC proliferation,"[1]; above 10 μg/ml, 10% FBS",inhibited proliferation
same,effect on HRPC proliferation,"[1]; approximately 0.5, 1, 5 μg/ml, 5% FBS",increased HRPC proliferation in a dose responsive manner
"XMP.711: BPI protein product, SEQ ID NO: 7 (KLARK; XMP.711; listed as Homo sapiens)",HRPC proliferation,[1],little or no proliferation
"XMP.768: BPI protein product, SEQ ID NO: 14 (KLFRAQAK; XMP.768; listed as Homo sapiens)",HRPC proliferation,[1],enhanced the proliferation of HRPC
"XMP.852: BPI protein product, SEQ ID NO: 8 (KLFRAQ; XMP.852; listed as Homo sapiens)",HRPC proliferation,[1],little or no proliferation
"XMP.718: BPI protein product, SEQ ID NO: 10 (KLFRKA; XMP.718; listed as Homo sapiens)",toxicity on HRPC,[1],some toxicities
"XMP.629: BPI protein product, SEQ ID NO: 12 (KLFRAQAKA; XMP.629; listed as Homo sapiens)",HRPC proliferation,[1],enhanced the proliferation of HRPC
"rBPI21: recombinant N-terminal BPI analog, amino acids 1 to approximately 193 or 199, cysteine 132 substituted with alanine (protein, UniProt P17213 32-224, looked up, variant C132A) VNPGVVVRISQKGLDYASQQGTAALQKELKRIKIPDYSDSFKIKHLGKGHYSFYSMDIREFQLPSSQISMVPNVGLKFSISNANIKISGKWKAQKRFLKMSGNFDLSIEGMSISADLKLGSNPTSGKPTITASSCSSHINSVHVHISKSKVGWLIQLFHKKIESALRNKMNSQVCEKVTNSVSSELQPYFQTL",stimulation of proliferation,"[3]; 75 μg/mL, 5, 10 or 15% FBS",3 fold
same,increase of DNA above basal level,"[3]; 75 μg/ml, 5% FBS",5 fold
same,maximum growth compared with 20% FBS,"[3]; 75 μg/ml, 5% FBS",almost equaled the growth effect of 20% FBS
same,growth compared with 20% FBS,"[3]; 75 μg/ml, 15% FBS",increased the growth greater then 20% FBS
same,effect on DNA content,"[3]; 5, 25, 75 μg/ml, 5% FBS",increased DNA content in a dose responsive manner
same,total number of cells per well,"[3]; 5, 25, 75 μg/ml, 5% FBS",increased in a dose responsive manner
same,effect on growth,"[3]; 5, 25 and 75 μg/ml, 10% FBS",induced the growth of pericyte
same,growth compared with 20% FBS,"[3]; 25 and 75 μg/ml, 10% FBS",appeared to improve growth above that of 20% FBS
same,time of maximum MAP kinase phosphorylation after addition,[4],15 min
same,effect on MAP kinase phosphorylation,[4]; 1 to 60 minutes,increased MAP kinase phosphorylation over time
same,maximum MAP kinase phosphorylation compared with 20% FBS,[4]; 15 minutes,nearly equaled the effect of 20% FBS
same,HRPC proliferation,[1],little or no proliferation
same,effect on DNA content,"[2]; 5 μg/ml compound, with and without VEGF",did not have a significant effect
same,effect on DNA content (VEGF-dependent growth),[2]; VEGF 25 ng/ml plus 25 μg/ml compound,did not have a significant effect
same,effect on DNA content (VEGF-dependent growth),[2]; VEGF 25 ng/ml plus 75 μg/ml compound,decreased significantly the DNA content; also recorded: prevented VEGF-dependent growth
same,effect on total DNA content (growth),"[2]; compound alone without VEGF, 25 or 75 μg/ml",did not have a significant effect
same,effect on RPEC growth,[5],had no effect
